Drawing on patent US6362188B1, “Farnesyl protein transferase inhibitors” (Schering Corporation, priority 1998, dated 2002), this text covers IC50 for 48 compounds.

This test deals with Human tumor cells. The test is described as follows: Soft Agar Assay (anchorage-independent growth). It is filed as cell-based. Particulars: colony outgrowth in soft agar, stated as a range for the group. The procedure: Anchorage-independent growth is a characteristic of tumorigenic cell lines. Human tumor cells can be suspended in growth medium containing 0.3% agarose and an indicated concentration of a farnesyl transferase inhibitor. The solution can be overlayed onto growth medium solidified with 0.6% agarose containing the same concentration of farnesyl transferase inhibitor as the top layer. After the top layer is solidified, plates can be incubated for 10-16 days at 37° C. under 5% CO2 to allow colony outgrowth. After incubation, the colonies can be stained by overlaying the agar with a solution of MTT (3-[4,5-dimethyl-thiazol-2-yl]-2,5-diphenyltetrazolium bromide, Thiazolyl blue) (1 mg/mL in PBS). Colonies can be counted and the IC50's can be determined.

Consider `Cc1nccn1CC1CN(C(=O)C2CN(C3c4ccc(Cl)cc4CCc4cccnc43)CCN2C(=O)OC(C)(C)C)CCS1(=O)=O` (stereo not drawn) [35(E)], for which the IC50 lay within 0.05 to 30 nM. In the case of `Cc1cn(CC2CCCN(C(=O)C3CN(C4c5ccc(Cl)cc5CCc5cc(Br)cnc54)CCN3C(=O)NC(C)(C)C)C2)cn1` (stereo not drawn) [Example 177] it was 0.05 to 30 nM. In the case of `Cc1cn(C[C@@H]2CCCN(C(=O)[C@H]3CN([C@H]4c5ccccc5CCc5cc(Cl)cnc54)CCN3C(=O)NC(C)(C)C)C2)cn1` [Example 302], the IC50 lay in the range of 0.05 to 30 nM. In turn, `Cc1cn(C[C@@H]2CCCN(C(=O)[C@H]3CN([C@@H]4c5ccc(Cl)cc5CCc5cc(Cl)cnc54)CCN3C(=O)OC(C)C)C2)cn1` [Example 231] yielded a concentration for half-maximal inhibition (IC50) of 0.05 to 30 nM. Under `Cc1cn(C[C@@H]2CCCN(C(=O)[C@H]3CN([C@H]4c5ccc(Cl)cc5CCc5cc(Br)cnc54)CCN3C(=O)OC3CCCCC3)C2)cn1` [Example 172] stands 0.05 to 30 nM; under `Cc1nccn1CC1CCCN(C(=O)C2CN(C3c4ccc(Cl)cc4CCc4cccnc43)CCN2C(=O)NC(C)(C)C)C1` (stereo not drawn) [Example 49], 0.5 to 30 nM. In turn, `Cc1cn(C[C@@H]2CCCN(C(=O)[C@H]3CN([C@@H]4c5ccccc5CCc5cc(Cl)cnc54)CCN3C(=O)NC(C)(C)C)C2)cn1` [Example 301] gave an IC50 of 0.05 to 30 nM. Under `Cc1cn(CCC2CCCN2C(=O)C2CN(C3c4ccc(Cl)cc4CCc4cccnc43)CCN2C(=O)OC2CCCCC2)cn1` (single isomer, unassigned) [47(S)] stands 0.05 to 30 nM; under `Cc1cn(CC2CCCN(C(=O)C3CN(C4c5ccc(Cl)cc5CCc5cc(Br)cnc54)CCN3C(=O)C(C)(C)C)C2)cn1` (stereo not drawn) [Example 180], 0.05 to 30 nM.

`Cc1cncn1CC1CN(C(=O)C2CN(C3c4ccc(Cl)cc4CCc4cc(Br)cnc43)CCN2C(=O)OC(C)(C)C)CCS1(=O)=O` (stereo not drawn) [Example 152] had an IC50 of 0.05 to 30 nM. Under `Cc1cn(CC2CCCN(C(=O)C3CN(C4c5ccc(Cl)cc5CCc5cc(Cl)cnc54)CCN3C(=O)OCC(C)(C)C)C2)cn1` (stereo not drawn) [Example 233] stands 0.05 to 30 nM; under `CC(C)(C)OC(=O)N1CCN(C2c3ccc(Cl)cc3CCc3cc(Br)cnc32)C[C@@H]1C(=O)N1CCC[C@H](Cn2ccnc2)C1` (stereo partly drawn) [Example 1], 0.5 to 30 nM; under `CC(C)(C)OC(=O)N1CCN([C@H]2c3ccc(Cl)cc3CCc3cc(Br)cnc32)C[C@@H]1C(=O)N1CCCCC1CCn1ccnc1` (stereo partly drawn) [Example 138, 1,1-dimethylethyl 4-(3-bromo-8-chloro-6,11-dihydro-5H-benzo[5,6]cyclohepta[1,2-b]pyridin-11(S)-yl)-2(R)-[[2-[2-(1H-imidazol-1-yl)ethyl]-1-piperidinyl]carbonyl]-1-piperazinecarboxylate], 0.5 to 30 nM. Under `Cc1cn(CC2CN(C(=O)C3CN(C4c5ccc(Cl)cc5CCc5cc(Br)cnc54)CCN3C(=O)OC(C)(C)C)CCS2(=O)=O)cn1` (stereo not drawn) [Example 150] stands 0.05 to 30 nM; under `Cc1cn(C[C@@H]2CCCN(C(=O)[C@H]3CN([C@H]4c5ccc(Cl)cc5CCc5cc(Br)cnc54)CCN3C(=O)OCC(C)(C)C)C2)cn1` [Example 174], 0.05 to 30 nM. Compound `Cc1cn(C[C@H]2CCCN(C(=O)[C@H]3CN([C@@H]4c5ccc(Cl)cc5CCc5cc(Cl)cnc54)CCN3C(=O)OCC(C)(C)C)C2)cn1` [Example 245] returned an IC50 of 0.05 to 30 nM. On to `Cc1cn(C[C@H]2CCCN(C(=O)[C@H]3CN([C@@H]4c5ccc(Cl)cc5CCc5cc(Br)cnc54)CCN3C(=O)OC(C)C)C2)cn1` [Example 183], for which the IC50 fell in the range of 0.05 to 30 nM. The compound `Cc1[nH]cnc1CC1CN(C(=O)C2CN(C3c4ccc(Cl)cc4CCc4cc(Br)cnc43)CCN2C(=O)OC(C)(C)C)CCS1(=O)=O` (single isomer, unassigned) [Example 156] registered an IC50 of 0.05 to 30 nM. In the case of `Cc1cn(C[C@@H]2CN(C(=O)[C@H]3CN([C@@H]4c5ccc(Cl)cc5CCc5cc(Br)cnc54)CCN3C(=O)OC3CCCCC3)CCS2(=O)=O)cn1` [Example 209] it was 0.05 to 30 nM; in that of `CC1(Cn2ccnc2)CCCN(C(=O)[C@H]2CN([C@H]3c4ccc(Cl)cc4CCc4cccnc43)CCN2C(=O)OC2CCCCC2)C1` (stereo partly drawn) [Example 415], 0.05 to 30 nM.

For `Cc1cn(C[C@@H]2CCCN(C(=O)[C@H]3CN([C@@H]4c5ccc(Cl)cc5CCc5cc(Br)cnc54)CCN3C(=O)OC(C)C)C2)cn1` [Example 169], the IC50 fell in the range of 0.05 to 30 nM. In the case of `Cc1nc(C)n(CC2CCCN(C(=O)C3CN(C4c5ccc(Cl)cc5CCc5cccnc54)CCN3C(=O)OC3CCCCC3)C2)c1C` (single isomer, unassigned) [47(P)] it was 0.05 to 30 nM; in that of `Cc1cn(C[C@H]2CCCN(C(=O)[C@H]3CN([C@@H]4c5ccccc5CCc5cc(Cl)cnc54)CCN3C(=O)NC3CCCCC3)C2)cn1` [Example 317], 0.05 to 30 nM. On to `Cc1cn(CC[C@@H]2CCCN2C(=O)[C@H]2CN(C3c4ccc(Cl)cc4CCc4cc(Br)cnc43)CCN2C(=O)OC2CCCCC2)cn1` (stereo partly drawn) [Example 216], for which the IC50 was in the range of 0.05 to 30 nM. Under `Cc1cn(CC2CCCN(C(=O)C3CN(C4c5ncccc5CCc5cccc(Cl)c54)CCN3C(=O)OC3CCCCC3)C2)cn1` (single isomer, unassigned) [Example 391] stands 0.05 to 30 nM; under `Cc1cn(C[C@H]2CCCN(C(=O)[C@H]3CN([C@H]4c5ccccc5CCc5cc(Cl)cnc54)CCN3C(=O)C(C)(C)C)C2)cn1` [Example 316], 0.05 to 30 nM; under `Cc1cn(C[C@@H]2CN(C(=O)[C@H]3CN([C@H]4c5ccc(Cl)cc5CCc5cc(Br)cnc54)CCN3C(=O)OC3CCCCC3)CCS2(=O)=O)cn1` [Example 210], 0.05 to 30 nM. In the case of `Cc1nccn1CC1CCCN(C(=O)C2CN(C3c4ncccc4CCc4cccc(Cl)c43)CCN2C(=O)OC(C)(C)C)C1` (single isomer, unassigned) [Example 396] it was 0.05 to 30 nM; in that of `Cc1cn(C[C@@H]2CCCN(C(=O)[C@H]3CN([C@H]4c5ccc(Cl)cc5CCc5cc(Cl)cnc54)CCN3C(=O)OCC(C)(C)C)C2)cn1` [Example 234], 0.05 to 30 nM. Regarding `Cc1cn(C[C@H]2CCCN(C(=O)[C@H]3CN([C@H]4c5ccc(Cl)cc5CCc5cc(Br)cnc54)CCN3C(=O)OC(C)C)C2)cn1` [Example 184], the IC50 lay in the range of 0.05 to 30 nM. Consider `CC(C)(C)OC(=O)N1CCN(C2c3ccc(Cl)cc3CCc3cc(Br)cnc32)CC1C(=O)N1CCCCC1CCCn1ccnc1` (single isomer, unassigned) [Example 145], for which the concentration for half-maximal inhibition (IC50) fell in the range of 0.5 to 30 nM. `Cc1nccn1CC1CN(C(=O)C2CN(C3c4ccc(Cl)cc4CCc4cc(Br)cnc43)CCN2C(=O)OC(C)(C)C)CCS1(=O)=O` (stereo not drawn) [Example 151] showed an IC50 of 0.05 to 30 nM. Take `Cc1cn(C[C@H]2CCCN(C(=O)[C@H]3CN([C@@H]4c5ccc(Cl)cc5CCc5cc(Br)cnc54)CCN3C(=O)OCC(C)(C)C)C2)cn1` [Example 187]: the IC50 lay in the range of 0.05 to 30 nM. In the case of `Cc1cn(CC2CCCN(C(=O)C3CN(C4c5ccccc5CCc5cc(Cl)cnc54)CCN3C(=O)OCC3CC3)C2)cn1` (stereo not drawn) [Example 300] it was 0.05 to 30 nM.

As to `Cc1cncn1C[C@H]1CN(C(=O)[C@H]2CN([C@H]3c4ccc(Cl)cc4CCc4cc(Br)cnc43)CCN2C(=O)OC(C)(C)C)CCS1(=O)=O` [Example 154], the IC50 is 0.05 to 30 nM.

In the case of `Cc1cn(C[C@H]2CCCN(C(=O)[C@H]3CN([C@H]4c5ccc(Cl)cc5CCc5cc(Br)cnc54)CCN3C(=O)NC(C)(C)C)C2)cn1` [Example 192], the IC50 lay in the range of 0.05 to 30 nM. In the case of `CC(C)(C)OC(=O)N1CCN(C2c3ccc(Cl)cc3CCc3cc(Br)cnc32)C[C@@H]1C(=O)N1CCCCC1CCn1ccnc1` (stereo partly drawn) [Example 74, 1,1-dimethylethyl-4-(3-bromo-8-chloro-6,11-dihydro-5H-benzo[5,6]cyclohepta[1,2-b]pyridin-11-yl)-2(R)-[[2-[2-(1H-imidazol-1-yl)ethyl]-1-piperidinyl]carbonyl]-1-piperazinecarboxylate] it was 0.5 to 30 nM; in that of `Cc1cn(C[C@@H]2CCCN(C(=O)[C@H]3CN([C@H]4c5ccc(Cl)cc5CCc5cc(Br)cnc54)CCN3C(=O)C3(C)CC3)C2)cn1` [Example 201], 0.05 to 30 nM; in that of `Cc1cn(C[C@H]2CCCN(C(=O)[C@H]3CN([C@@H]4c5ccc(Cl)cc5CCc5cc(Br)cnc54)CCN3C(=O)OC3CCCCC3)C2)cn1` [Example 185], 0.05 to 30 nM. `Cc1cn(C[C@@H]2CCCN(C(=O)[C@H]3CN([C@@H]4c5ccc(Cl)cc5CCc5cc(Br)cnc54)CCN3C(=O)OC3CCCCC3)C2)cn1` [Example 171] showed an IC50 of 0.05 to 30 nM. In the case of `Cc1cn(C[C@@H]2CCCN(C(=O)[C@H]3CN([C@H]4c5ccc(Cl)cc5CCc5cccnc54)CCN3C(=O)OC(C)(C)C)C2)cn1` [Example 32] it was 0.5 to 30 nM; in that of `Cc1cn(C[C@]2(C)CCCN(C(=O)[C@H]3CN([C@H]4c5ccc(Cl)cc5CCc5cccnc54)CCN3C(=O)OC3CCCCC3)C2)cn1` [Example 417], 0.05 to 30 nM; in that of `Cc1cn(C[C@@H]2CCCN(C(=O)[C@H]3CN([C@@H]4c5ccccc5CCc5cc(Cl)cnc54)CCN3C(=O)OCC(C)(C)C)C2)cn1` [Example 297], 0.05 to 30 nM. In the case of `Cc1cn(C[C@@H]2CCCN(C(=O)[C@H]3CN([C@H]4c5ccc(Cl)cc5CCc5cc(Cl)cnc54)CCN3C(=O)C(C)(C)C)C2)cn1` [Example 240] it was 0.05 to 30 nM. `Cc1cn(C[C@@]2(C)CCCN(C(=O)[C@H]3CN([C@H]4c5ccc(Cl)cc5CCc5cccnc54)CCN3C(=O)OC3CCCCC3)C2)cn1` [Example 416] gave an IC50 of 0.05 to 30 nM. Compound `Cc1cn(CC2CCCN(C(=O)C3CN(C4c5ccc(Cl)cc5CCc5cccnc54)CCN3C(=O)NC(C)(C)C)C2)cn1` (stereo not drawn) [Example 50] yielded a concentration for half-maximal inhibition (IC50) of 0.5 to 30 nM. In the case of `Cc1cn(CC2CCCN(C(=O)C3CN(C4c5ncccc5CCc5cc(Cl)cc(Br)c54)CCN3C(=O)OC(C)(C)C)C2)cn1` (single isomer, unassigned) [Example 407] it was 0.05 to 30 nM.

`Cc1cn(CC[C@H]2CCCN2C(=O)[C@H]2CN(C3c4ccc(Cl)cc4CCc4cc(Br)cnc43)CCN2C(=O)OC2CCCCC2)cn1` (stereo partly drawn) [Example 215]: the 50% inhibitory concentration (IC50) is 0.05 to 30 nM.

What is called IC50 is the point on the concentration scale where inhibition reaches its midpoint. A higher IC50 goes with weaker potency.
